The target in data set [1] is T1, Human acetylcholinesterase (hAChE) (Homo sapiens, UniProt P22303).
T1 construct: purchased Sigma
Kind of data set: Ellman assay, human acetylcholinesterase inhibition. The data set is classed as biochemical. As to conditions: for effect on AChE inhibition (in words): selected active components, FIG. 2 and 3. As to the method:
The screening for modest cholinesterease inhibitors by the method of Ellman assay was used. Human acetylcholinesterase (hAChE) in buffer was added to the test chemicals/TCM extract followed by the addition of acetylthiocholine (ATCI) substrates and Ellman's reagent, (5′5-dithio-bis-(2-nitrobenzoate), DTNB). The AChE inhibitory activity was monitored by the release of thiocholine which was then reacted with DTNB to form a bright yellow product. The optical densities of the color product formed was spectrophotometrically determined.
After 10 minutes, the optical densities were measured in a 96-well plate reader at 415 nm. Optical densities was inversely proportional to the inhibiting activity.
Selected active components were dissolved in 50% DMSO. 100% DMSO was not recommended in this assay as it lowers the enzyme vitality.
Ellman assay was performed on the selected active components, protocatechualdehyde (MW=138.12), cryptotanshinone (MW=296), salvianic acid B (MW=718) and dihydrotanshinone I (MW=278). 10-fold dilution was made with highest concentration at 40 μM. (FIG. 2)
10-fold dilution was made with the highest concentration at 80 μM. (FIG. 3)
(DTNB colorimetry detects thiols as they appear.)

Data set [2] deals with T2, butrylcholinesterase (hBChE) (Homo sapiens, UniProt P06276).
T2 construct: purchased Sigma
T2 sequence (P06276 29-602): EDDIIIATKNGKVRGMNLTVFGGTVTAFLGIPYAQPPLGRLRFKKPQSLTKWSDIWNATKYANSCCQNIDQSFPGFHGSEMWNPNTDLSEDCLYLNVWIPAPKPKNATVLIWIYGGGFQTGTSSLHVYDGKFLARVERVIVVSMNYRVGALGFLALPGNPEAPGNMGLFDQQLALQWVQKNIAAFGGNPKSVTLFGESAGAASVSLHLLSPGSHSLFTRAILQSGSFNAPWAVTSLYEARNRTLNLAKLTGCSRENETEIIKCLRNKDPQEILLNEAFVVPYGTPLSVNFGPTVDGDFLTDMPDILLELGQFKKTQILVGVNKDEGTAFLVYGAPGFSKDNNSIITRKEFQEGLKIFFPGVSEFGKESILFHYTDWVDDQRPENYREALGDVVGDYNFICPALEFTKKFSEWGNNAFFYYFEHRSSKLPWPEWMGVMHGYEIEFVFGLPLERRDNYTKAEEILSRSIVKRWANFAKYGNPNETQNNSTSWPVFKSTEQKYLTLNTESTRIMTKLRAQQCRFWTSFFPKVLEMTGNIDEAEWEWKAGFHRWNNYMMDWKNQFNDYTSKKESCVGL
In words: Ellman assay with butrylcholinesterase (specificity). The data set is classed as biochemical. As to conditions: hAChE run in parallel; FIGS. 4a and 4b. An excerpt: In order to test the specificity of cryptotanshinone and dihydrotanshinone I towards hAChE, butrylcholinesterase (hBChE) instead of hAChE was used in Ellman assay. hBChE is concentrated in […] and it is named as pseudoesterase as it has very homology as hAChE.
Ellman assay was preformed as mentioned, except that hBChE (commercially obtained from Sigma.) was used. Ellman assay using hAChE was also preformed in parallel for comparison.

Data set [3] has as its system neuronal cell line-SHSY5Y. Kind of data set: MTT cytotoxicity assay on SHSY5Y. In kind it is cell-based. As to conditions: FIG. 5a. An excerpt:
(§1) MTT assay was used to check for the toxicity of the selected primary hAChE inhibitors. Since only metabolic active cell can cleave the tetrazolium salt MTT and form a formazen dye. The O.D. measure at 540 nm is directly proportional to the number of viable cell.
(Tetrazolium assays rely on reduction of a dye to a coloured formazan, in cell work by metabolically active cells.)

A further data set concerns Gram positive bacteria. Particulars: broad range of Gram positive bacteria; cited from earlier work.
For data set [4], the system named is mouse neuronal cell line N1E-115. Kind of data set: MTT cytotoxicity assay on N1E-115. In kind it is cell-based. Particulars: FIG. 5b.
Text: as §1

Data set [5] concerns interleukin-12 (IL-12) and interferon-gamma (IFN-gamma) production. Particulars: compared with cryptotanshinone and tanshinone I; cited from earlier work.

T1 sequence (P22303 32-614): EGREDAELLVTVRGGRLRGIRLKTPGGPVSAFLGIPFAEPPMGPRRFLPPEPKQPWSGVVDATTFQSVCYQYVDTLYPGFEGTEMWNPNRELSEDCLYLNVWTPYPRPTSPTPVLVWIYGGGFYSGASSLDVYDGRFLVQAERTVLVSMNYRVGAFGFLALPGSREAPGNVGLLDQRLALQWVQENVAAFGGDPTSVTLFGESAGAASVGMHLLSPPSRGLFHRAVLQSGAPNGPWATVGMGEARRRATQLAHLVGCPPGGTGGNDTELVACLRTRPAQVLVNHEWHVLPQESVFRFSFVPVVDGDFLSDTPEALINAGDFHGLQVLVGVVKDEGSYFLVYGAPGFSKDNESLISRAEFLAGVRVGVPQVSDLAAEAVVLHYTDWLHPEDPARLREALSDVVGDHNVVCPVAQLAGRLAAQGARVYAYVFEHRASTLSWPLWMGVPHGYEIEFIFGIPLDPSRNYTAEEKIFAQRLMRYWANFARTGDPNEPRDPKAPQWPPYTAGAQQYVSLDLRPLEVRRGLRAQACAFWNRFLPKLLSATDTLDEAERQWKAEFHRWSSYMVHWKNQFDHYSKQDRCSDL

Take `O=Cc1ccc(O)c(O)c1` [protocatechualdehyde, reference compound]: the “effect on AChE inhibition (in words)” value in data set [1] is “little effect”.
By IC50 is commonly meant the point on the concentration scale where inhibition reaches its midpoint. Read a high IC50 as lower potency. `C[C@H]1COC2=C1C(=O)C(=O)c1c2ccc2c1CCCC2(C)C` [cryptotanshinone]: the “selectivity for AChE versus BChE” value in data set [2] is given as “higher selectivity for AChE than BChE”. The MTT cytotoxicity entry in data set [3] (1-50 μM) was “No significant cytotoxicity”; in data set [4] (N1E-115, 1-50 μM), “No significant cytotoxicity”. Besides, the IC50 in data set [1] was in the range of 5 to 8 µM. Further, in the data set on Gram positive bacteria, the antibacterial activity result is listed as “antibacterial activity”.
Take `Cc1cccc2c3c(ccc12)C1=C(C(=O)C3=O)[C@@H](C)CO1` [dihydrotanshinone I]: the “selectivity for AChE versus BChE” value in data set [2] is “higher selectivity for AChE than BChE”. For the same compound, the MTT cytotoxicity result is “No significant cytotoxicity” in data set [3] (1 μM) and “No significant cytotoxicity” in data set [4] (N1E-115, 1 μM). In data set [1], this compound came in with an IC50 of 0.5 to 0.8 µM. Further, in the data set on Gram positive bacteria, the antibacterial activity entry is “antibacterial activity”. Also, the “inhibition of IL-12 and IFN-gamma production” value in data set [5] is recorded as “effectively inhibit”.
Take `Cc1coc2c1C(=O)C(=O)c1c-2ccc2c1CCCC2(C)C` [tanshinone IIA, reference compound]: the “effect on AChE inhibition (in words)” value in data set [1] is “little effect”.
Same read-out and setting: to `O=C(C=Cc1ccc(O)c2c1C(C(=O)OC(Cc1ccc(O)c(O)c1)C(=O)O)C(c1ccc(O)c(O)c1)O2)OC(Cc1ccc(O)c(O)c1)C(=O)O` (centres unmarked) [salvianic acid B, reference compound] belongs “little effect”.
For the compound `Cc1coc2c1C(=O)C(=O)c1c-2ccc2c(C)cccc12` [tanshinone I], the MTT cytotoxicity entry is reported as “No significant cytotoxicity” in data set [3] (1 μM) and “No significant cytotoxicity” in data set [4] (N1E-115, 1 μM). The IC50 in data set [1] was around 70 µM.

Source of the values: US20040191334A1, “Use of transhinone derivates as cholinesterase inhibitors in treating related diseases” (priority 2003, published 2004).
